The assay addresses T1, Human GLP-1 receptor (Homo sapiens, UniProt P43220).
T1 construct: expressed in transfected cells; host or cells: CHO-K1
Description: Measurement of GLP-1 receptor agonist activity (cAMP assay in hGLP-1R/CHO-K1 cells). Format: cell-based. Particulars: for Emax: CHO-K1, maximum effect, cAMP with 2 nM human GLP-1 (7-36) = 100%, DMSO only = 0%; for EC50: cAMP increase in hGLP-1R/CHO-K1 cells, 1 hour at 37° C., with Forskolin. The method, then:
Human GLP-1 receptor stably expressing cells (hGLP-1R/CHO-K1 cells) are cultured in an α-MEM medium (Sigma) containing 10% FBS (Hyclone), 2% GlutaMAX (Gibco), 1% G418 (Nacalai Tesque), and 1% Penicillin-Streptomycin Mixed Solution (Sigma) at 37° C. under 5% CO2 conditions, and recovered by treating a 10 fold diluted 5.0 g/1-trypsin/5.3 mmol/1-EDTA solution (Nacalai Tesque) and cryopreserved.
A DMSO solution containing the compound of the present invention or human GLP-1 (7-36) (Phoenix Pharmaceuticals) is dispensed into a 384-well microplate (Greiner) at 62.5 nL/well, and in addition, 400 μM Forskolin (Nacalai Tesque) is dispensed therein at 7.5 nL/well. Subsequently, the frozen GLP-1 R/CHO-K1 cells are thawed in a thermostatic bath at 37° C., suspended in HBSS buffer (GIBCO) containing 0.1% BSA (Sigma), 20 mM HEPES, 0.1 mM IBMX (Sigma), and 0.2 mM RO20-1724 (Calbiochem) at 2×10^4 cells/mL, and the cell suspension is added at 6 μL/well. The solution was incubated at 37° C. for 1 hour and intracellular cAMP concentration is measured using cAMP Gs dynamic kit (Cisbio) according to the protocol attached to the product. Specifically, a cAMP-d2/Anti-cAMP-Cryptate (1/1) mixture solution is added in a total amount of 6 μL/well, and is incubated at room temperature for 1 hour, and then, time-resolved fluorescence is measured using PHERAstar (BMG Labtech).
Assuming that the cAMP concentration when human GLP-1 (7-36) is dispensed to a final concentration of 2 nM is 100% and the cAMP concentration when only DMSO is dispensed is 0%, the 50% effective concentration (EC50) and the maximum effect (Emax) of the compound of the present invention are calculated using an increase in the cAMP concentration as an index, using TIBCO Spotfire (TIBCO Software). The dilution concentration or the dilution solvent are changed as necessary.
The compounds of the present invention were tested essentially as described above.
(cAMP levels reflect the balance of adenylyl cyclase and phosphodiesterase activity.)

T1 sequence (P43220 24-463): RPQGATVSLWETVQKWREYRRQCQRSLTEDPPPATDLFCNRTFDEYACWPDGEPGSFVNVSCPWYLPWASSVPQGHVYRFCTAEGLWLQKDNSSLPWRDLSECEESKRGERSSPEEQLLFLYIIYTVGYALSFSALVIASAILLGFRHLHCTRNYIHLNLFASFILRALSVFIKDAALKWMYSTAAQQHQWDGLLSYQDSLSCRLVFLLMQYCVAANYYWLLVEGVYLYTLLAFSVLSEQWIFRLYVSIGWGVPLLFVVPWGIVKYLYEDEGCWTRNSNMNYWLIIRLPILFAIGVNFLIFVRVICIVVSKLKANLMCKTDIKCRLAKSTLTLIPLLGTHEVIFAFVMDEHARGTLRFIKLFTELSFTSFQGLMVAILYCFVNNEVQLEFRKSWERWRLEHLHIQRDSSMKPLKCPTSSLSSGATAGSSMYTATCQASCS

`CC(NCc1nc2ccc(C(=O)O)cc2n1C[C@@H]1CCO1)c1nc(OCc2ccc(Cl)cc2F)c(C(F)(F)F)cc1F` (mixture of isomers) [Compound I-003] returned an Emax of 65.3% and an EC50 of 0.354 µM.
In turn, `CC(NCc1nc2ccc(C(=O)O)cc2n1C[C@@H]1CCO1)c1ccc(C(F)(F)F)c(OCc2ccc(Cl)cc2F)n1` (mixture of isomers) [Compound I-004] displayed an Emax of 60% and an EC50 of 1.06 µM.
`CN(CCc1cnc(OCc2ccc(Cl)cc2F)c(C(F)(F)F)c1)Cc1nc2ccc(C(=O)O)cc2n1C[C@@H]1CCO1` [Compound I-002] registered an Emax of 52% and an EC50 of 2.3 µM.
The corresponding values for `CC(c1ccc(C(F)(F)F)c(OCc2ccc(Cl)cc2F)n1)N(C)Cc1nc2ccc(C(=O)O)cc2n1C[C@@H]1CCO1` (stereo partly shown) [Compound I-005] are 74.7% and 0.086 µM.
`O=C(O)c1ccc2nc(CNCc3ccc(C(F)(F)F)c(OCc4ccc(Cl)cc4F)n3)n(C[C@@H]3CCO3)c2c1` [Compound I-006] came in with a maximal effect (Emax) of 55% and an EC50 of 2.83 µM.

Usually Emax stands for the maximal effect, on the per cent scale that the assay sets. For orientation: EC50 means the concentration giving half of the maximal effect. Read a high EC50 as weaker potency.

These data come from US20260098031A1, “MONOCYCLIC COMPOUND HAVING GLP-1 RECEPTOR AGONIST ACTIVITY” (Shionogi & Co., Ltd., priority 2022, published 2026).
